According to US12509459B2, “Inhibitors of NLRP3 inflammasome” (BioAge Labs, Inc., priority 2024, dated 2025):

Key:
[1] = tested on: foot gout mouse model; assay: Foot gout mouse model; assay type: in vivo; details: FIG. 16 and FIG. 17
[2] = tested on: DIO mice; assay: Diet-induced obesity (DIO) mouse model; assay type: in vivo
[3] = target: T1, NLRP3 (Homo sapiens, UniProt Q96P20); assay: THP-1 cell-based NLRP3 activation assay; set-up: endogenous in cells; host or cells: THP-1 cells (PMA-differentiated, LPS-primed, nigericin-stimulated); details: PMA-differentiated THP-1 cells, LPS 100 ng/mL then 10 μM nigericin
Outline: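 THP-1 cells were PMA-differentiated (20 nM, 24 h or 500 nM, 3 h), primed with 100 ng/mL LPS for 3 h, then given compound in Opti-Mem for 30 min before 10 μM nigericin for 1 h. Supernatants assayed; viability of adherent cells by CellTiter-Glo.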
Target sequence in this assay (Q96P20 whole entry): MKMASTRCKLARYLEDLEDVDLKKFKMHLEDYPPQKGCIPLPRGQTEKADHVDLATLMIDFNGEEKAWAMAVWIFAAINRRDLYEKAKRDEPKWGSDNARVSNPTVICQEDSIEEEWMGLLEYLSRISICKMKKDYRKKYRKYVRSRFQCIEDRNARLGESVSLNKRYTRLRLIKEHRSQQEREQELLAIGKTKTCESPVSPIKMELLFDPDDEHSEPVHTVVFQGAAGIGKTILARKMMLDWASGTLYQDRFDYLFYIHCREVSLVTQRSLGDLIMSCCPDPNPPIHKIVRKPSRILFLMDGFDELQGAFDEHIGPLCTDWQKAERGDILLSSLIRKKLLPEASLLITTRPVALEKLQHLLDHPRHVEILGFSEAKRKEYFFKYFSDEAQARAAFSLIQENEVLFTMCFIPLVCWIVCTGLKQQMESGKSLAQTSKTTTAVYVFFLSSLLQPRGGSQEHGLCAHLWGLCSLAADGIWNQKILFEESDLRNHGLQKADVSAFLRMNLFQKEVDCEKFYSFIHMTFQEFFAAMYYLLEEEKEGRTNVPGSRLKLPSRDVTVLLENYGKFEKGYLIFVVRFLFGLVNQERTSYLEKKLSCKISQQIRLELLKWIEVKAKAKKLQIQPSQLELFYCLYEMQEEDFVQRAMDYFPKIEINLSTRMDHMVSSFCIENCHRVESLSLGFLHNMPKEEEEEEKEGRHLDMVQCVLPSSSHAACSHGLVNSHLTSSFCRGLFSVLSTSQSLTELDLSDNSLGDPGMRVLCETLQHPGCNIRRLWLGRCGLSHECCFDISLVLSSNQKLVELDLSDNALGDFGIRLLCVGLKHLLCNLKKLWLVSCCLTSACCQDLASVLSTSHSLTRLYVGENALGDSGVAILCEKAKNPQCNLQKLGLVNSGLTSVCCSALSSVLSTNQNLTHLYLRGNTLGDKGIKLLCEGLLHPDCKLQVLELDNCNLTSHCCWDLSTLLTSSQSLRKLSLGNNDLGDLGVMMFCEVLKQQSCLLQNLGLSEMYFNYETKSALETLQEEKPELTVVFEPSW

[4] = target: T1, NLRP3; assay: Cryo-EM NLRP3 epitope determination; assay type: binding; set-up: made in house; host or cells: Sf9 insect cells (baculovirus); details: cryo-EM of NLRP3·Compound 007 complex, 3.00 Å resolution, FIG. 1
Description: Compound 007 of the disclosure was used as an exemplary compound for determining the epitope to NLRP3, using cryogenic electron microscopy (cryo-EM).
Full length, human NLRP3 (3-1036, UniProt accession code Q96P20), codon-optimized for Spodoptera frugiperda, was cloned in an in-house modified pACE-Bac1 vector containing an N-terminal MBP-tag, followed by a Tobacco etch virus (TEV) protease cleavage site. For recombinant protein expression of MBP-NLRP3, 1 L of Sf9 insect cells were infected with 3% v/v viral stock of the second virus passage. The expression culture was incubated for 72 h at 27° C. and 80 rpm, and was subsequently harvested by centrifugation at 2000 rpm for 20 min. […] Elution fractions were analyzed by SDS-PAGE and negative stain electron microscopy (EM), before they were plunge frozen for cryo-EM analysis.
The purified NLRP3·Compound 007 complex was applied onto glow-discharged EM-grids (Quantifoil Cu300 R2/1+2 nm carbon support film), incubated for 30s at 100% humidity and 4° C., before it was blotted for 5s with blot force 5 and plunge frozen into liquid ethane using a Vitrobot mark IV plunge freezing device (Thermo Fisher Scientific). […] Using the blob picker, 3,114,152 particles were picked and detected of which 2,058,399 were extracted (search particle diameter […], 588 box size), of which 559,748 particles remained after multiple rounds of 2D classification. […]
Target sequence in this assay (Q96P20 3-1036): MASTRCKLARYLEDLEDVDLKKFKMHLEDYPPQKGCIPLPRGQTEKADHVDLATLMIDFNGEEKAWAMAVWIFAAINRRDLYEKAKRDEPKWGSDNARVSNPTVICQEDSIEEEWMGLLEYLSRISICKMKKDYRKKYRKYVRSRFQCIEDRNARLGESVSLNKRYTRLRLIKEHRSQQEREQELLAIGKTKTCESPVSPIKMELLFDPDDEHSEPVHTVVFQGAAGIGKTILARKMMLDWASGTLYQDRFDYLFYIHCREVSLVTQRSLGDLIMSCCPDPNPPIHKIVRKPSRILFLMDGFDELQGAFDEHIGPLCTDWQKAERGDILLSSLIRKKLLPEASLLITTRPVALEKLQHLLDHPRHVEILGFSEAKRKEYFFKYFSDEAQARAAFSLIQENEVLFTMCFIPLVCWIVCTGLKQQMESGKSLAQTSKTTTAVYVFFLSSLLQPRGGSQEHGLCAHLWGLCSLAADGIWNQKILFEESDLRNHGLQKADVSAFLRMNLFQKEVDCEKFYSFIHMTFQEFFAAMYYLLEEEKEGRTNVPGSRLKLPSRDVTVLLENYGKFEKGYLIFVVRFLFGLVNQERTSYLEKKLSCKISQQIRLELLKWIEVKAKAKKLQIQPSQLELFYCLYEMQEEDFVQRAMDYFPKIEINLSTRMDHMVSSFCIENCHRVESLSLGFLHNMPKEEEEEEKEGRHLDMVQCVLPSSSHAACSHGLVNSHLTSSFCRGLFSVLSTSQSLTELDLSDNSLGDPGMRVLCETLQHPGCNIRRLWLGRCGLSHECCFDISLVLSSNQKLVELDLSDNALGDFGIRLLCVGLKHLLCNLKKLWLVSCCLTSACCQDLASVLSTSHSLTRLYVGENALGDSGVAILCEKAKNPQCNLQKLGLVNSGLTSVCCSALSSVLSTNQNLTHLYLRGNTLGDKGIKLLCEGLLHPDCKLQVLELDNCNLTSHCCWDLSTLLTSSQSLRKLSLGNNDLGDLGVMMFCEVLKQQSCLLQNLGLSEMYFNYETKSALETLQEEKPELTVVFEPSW

[5] = summary, comparable to the effect of Semaglutide

## CCOc1cc(C(=O)N(C)[C@H](CCN(C)C)c2cncc3cn[nH]c23)ccc1-c1ccccc1 [Compound 096]
[1]
  swelling: reduce swelling in a foot gout mouse model in a dose dependent manner
[2]; Compound 096/211 study, FIGS. 14A and 14B
  body weight of DIO mice: dose-dependent effect on reducing body weight
[2]; DIO mice, 50 mpk, po, qd
  Day 14 BW % change vs. baseline: −11.9%
[2]; DIO mice, Compound 096/211 study, FIG. 14
  food consumption: dose-dependent effect on reducing food consumption
[2]; DIO mice, Compound 096/211 study, FIG. 15
  fat mass: caused a change in fat mass
[2]; [5]
  body weight of high fat DIO mice: significantly reduced
  food consumption of high fat DIO mice: significantly reduced
[3]
  IC50: < 100 nM

## CCOc1cc(C(=O)N(C)[C@H](CCO)c2cncc3cn[nH]c23)ccc1-c1cccc(F)c1 [Compound 007]
[3]
  IC50: < 100 nM
[4]
  binding site on NLRP3: binds in a pocket on the surface of the NACHT domain of NLRP3
